Test results published in US11198678B1, “Plakortinic acids A and B: cytotoxic cycloperoxides with a unique bicyclo[4.2.0]octene unit from sponges of the genera Plakortis and Xestospongia” (University of Puerto Rico, priority 2016, dated 2021).

Assays:
[1] = test system: DU-145 human prostate cancer cells; assay: MTS cell viability (cytotoxicity) assay, DU-145 prostate cancer cells; format: cell-based; conditions: 48 h treatment
Method: (§1) DU-145 human prostate cancer and A2058 melanoma cell lines were obtained from ATCC. These cells were cultured in RPMI-1640 or DMEM medium containing 10% fetal bovine serum (FBS), 100 units/mL penicillin, and 100 μg/mL streptomycin. All cells were maintained in a 5% CO2 atmosphere at 37° C. To determine the viability of the cells, Promega CellTiter 96 aqueous nonradioactive cell proliferation assays (MTS) were performed as described by the supplier (Promega; Madison, Wis.). Briefly, cells (5000/well) were seeded in 96-well plates and incubated overnight at 37° C. in 5% CO2. Cells were treated for 48 h with each compound. The concentration used was 10 μM. Dimethyl sulfoxide (DMSO) was used as the vehicle control. IC50 values of compounds were determined in a dose-dependent manner (0.1, 0.5, 1, 5, 10, 20, and 50 μM). Cell viability was determined by tetrazolium conversion to its formazan dye, and absorbance of formazan was measured at 490 nm using an automated ELISA plate reader. The production of formazan dye was directly proportional to the number of living cells. Each experiment was done in quadruplicate in the absence of a positive control.

[2] = test system: A2058 melanoma cells; assay: MTS cell viability (cytotoxicity) assay, A2058 melanoma cells; format: cell-based, human; conditions: 48 h treatment
Method: as §1

| Substance | IC50 [1] | IC50 [2] |
| --- | --- | --- |
| plakortinic acid A [compound 2] | 500 nM | 300 nM |
| plakortinic acid B methyl ester [compound 4] | 5900 nM | 4700 nM |
